From ChEMBL document CHEMBL4808194, “Design, synthesis and biological evaluation of novel 2,4-disubstituted quinazoline derivatives targeting H1975 cells via EGFR-PI3K signaling pathway” (Bioorg Med Chem, 2021)
Active and inactive are the calls of the source. The calls are words filed in the database; no cut-off is given here.

How the values were obtained:
[1] = molecular target: Epidermal growth factor receptor (Homo sapiens) (UniProt P00533); assay: Inhibition of EGFR in human NCI-H1975 cells assessed as reduction in PI3K phosphorylation level by Western blot analysis; format: cell-based; conditions: dose 2-8 µM
NCI-H1975 [2] = assay: Cell cycle arrest in human NCI-H1975 cells assessed as accumulation at S phase at 2 uM incubated for 24 hrs by propidium iodide staining based flow cytometric analysis (reference value: 30.87%); format: functional
[3] = molecular target: Epidermal growth factor receptor (Homo sapiens) (UniProt P00533); assay: Inhibition of EGFR in human NCI-H1975 cells assessed as reduction in EGFR phosphorylation level by Western blot analysis; format: cell-based; conditions: dose 2-8 µM
NCI-H1975 [4] = assay: Induction of apoptosis in human NCI-H1975 cells assessed as necrotic cells at 2 uM incubated for 48 hrs Annexin V-FITC/PI staining based flow cytometric analysis (reference value: 4.74%); format: functional
NCI-H1975 [5] = assay: cells; format: functional, cell-based; conditions: Homo sapiens, NCI-H1975, 72 h
Description: Antiproliferative activity against human NCI-H1975 cells assessed as inhibition of cell growth incubated for 72 hrs by MTT assay

NCI-H1975 [6] = assay: Cell cycle arrest in human NCI-H1975 cells assessed as accumulation at S phase at 4 uM incubated for 24 hrs by propidium iodide staining based flow cytometric analysis (reference value: 30.87%); format: functional
NCI-H1975 [7] = assay: Induction of apoptosis in human NCI-H1975 cells assessed as early apoptotic cells at 8 uM incubated for 48 hrs Annexin V-FITC/PI staining based flow cytometric analysis (reference value: 1%); format: functional
NCI-H1975 [8] = assay: Cell cycle arrest in human NCI-H1975 cells assessed as accumulation at G2 phase at 2 uM incubated for 24 hrs by propidium iodide staining based flow cytometric analysis (reference value: 18.57 %); format: functional
NCI-H1975 [9] = assay: Induction of ROS generation in human NCI-H1975 cells assessed increase in ROS level at 2 to 8 uM incubated for 48 hrs by DHE staining based fluorescence microscopy; format: functional, cell-based; conditions: dose 2-8 µM
MGC-803 = assay: cells; format: functional, cell-based; conditions: Homo sapiens, MGC-803, 72 h
Description: Antiproliferative activity against human MGC-803 cells assessed as inhibition of cell growth incubated for 72 hrs by MTT assay

NCI-H1975 [10] = assay: Cell cycle arrest in human NCI-H1975 cells assessed as accumulation at G2 phase at 4 uM incubated for 24 hrs by propidium iodide staining based flow cytometric analysis (reference value: 18.57 %); format: functional
NCI-H1975 [11] = assay: Induction of apoptosis in human NCI-H1975 cells assessed as decrease in Bcl2 level at 2 to 8 uM by western blot analysis; format: functional, cell-based; conditions: dose 2-8 µM
NCI-H1975 [12] = assay: Cell cycle arrest in human NCI-H1975 cells assessed as accumulation at G2 phase at 8 uM incubated for 24 hrs by propidium iodide staining based flow cytometric analysis (reference value: 18.57 %); format: functional
NCI-H1975 [13] = assay: Inhibition of colony formation in human NCI-H1975 cells assessed as fewer and smaller cell colonies incubated for 7 days by crystal violet staining based microscopic analysis; format: functional; conditions: dose 0.5-2 µM, time 7.0 day
NCI-H1975 [14] = assay: Induction of apoptosis in human NCI-H1975 cells assessed as early apoptotic cells at 4 uM incubated for 48 hrs Annexin V-FITC/PI staining based flow cytometric analysis (reference value: 1%); format: functional
NCI-H1975 [15] = assay: Cell cycle arrest in human NCI-H1975 cells assessed as accumulation at G1 phase at 8 uM incubated for 24 hrs by propidium iodide staining based flow cytometric analysis (reference value: 50.56 %); format: functional
NCI-H1975 [16] = assay: Cell cycle arrest in human NCI-H1975 cells assessed as accumulation at S phase at 8 uM incubated for 24 hrs by propidium iodide staining based flow cytometric analysis (reference value: 30.87%); format: functional
NCI-H1975 [17] = assay: Induction of apoptosis in human NCI-H1975 cells assessed as increase in Bax level at 2 to 8 uM by western blot analysis; format: functional, cell-based; conditions: dose 2-8 µM
NCI-H1975 [18] = assay: Induction of apoptosis in human NCI-H1975 cells assessed as shrunken and broken nuclear morphology at 2 to 8 uM incubated for 48 hrs by DAPI staining based fluorescence microscopic analysis; format: functional, cell-based; conditions: dose 2-8 µM
NCI-H1975 [19] = assay: Induction of apoptosis in human NCI-H1975 cells assessed as viable cells at 8 uM incubated for 48 hrs Annexin V-FITC/PI staining based flow cytometric analysis (reference value: 90.9%); format: functional; conditions: read-out: Activity
NCI-H1975 [20] = assay: Inhibition of cell migration in human NCI-H1975 cells incubated for 72 hrs by scratch wound healing assay; format: functional, cell-based; conditions: dose 0.5-2 µM
NCI-H1975 [21] = assay: Induction of apoptosis in human NCI-H1975 cells assessed as necrotic cells at 8 uM incubated for 48 hrs Annexin V-FITC/PI staining based flow cytometric analysis (reference value: 4.74%); format: functional
MDA-MB-231 = assay: cells; format: functional, cell-based; conditions: Homo sapiens, MDA-MB-231, 72 h
PC-3 = assay: cells; format: functional, cell-based; conditions: Homo sapiens, PC-3, 72 h
Description: Antiproliferative activity against human PC-3 cells assessed as inhibition of cell growth incubated for 72 hrs by MTT assay

NCI-H1975 [22] = assay: Induction of apoptosis in human NCI-H1975 cells assessed as late apoptotic cells at 4 uM incubated for 48 hrs Annexin V-FITC/PI staining based flow cytometric analysis (reference value: 2.53%); format: functional
NCI-H1975 [23] = assay: Induction of apoptosis in human NCI-H1975 cells assessed as late apoptotic cells at 2 uM incubated for 48 hrs Annexin V-FITC/PI staining based flow cytometric analysis (reference value: 2.53%); format: functional
NCI-H1975 [24] = assay: Induction of apoptosis in human NCI-H1975 cells assessed as early apoptotic cells at 2 uM incubated for 48 hrs Annexin V-FITC/PI staining based flow cytometric analysis (reference value: 1%); format: functional
NCI-H1975 [25] = assay: Cell cycle arrest in human NCI-H1975 cells assessed as accumulation at G1 phase at 2 uM incubated for 24 hrs by propidium iodide staining based flow cytometric analysis (reference value: 50.56 %); format: functional
NCI-H1975 [26] = assay: Induction of apoptosis in human NCI-H1975 cells assessed as viable cells at 4 uM incubated for 48 hrs Annexin V-FITC/PI staining based flow cytometric analysis (reference value: 90.9%); format: functional; conditions: read-out: Activity
NCI-H1975 [27] = assay: Induction of apoptosis in human NCI-H1975 cells assessed as necrotic cells at 4 uM incubated for 48 hrs Annexin V-FITC/PI staining based flow cytometric analysis (reference value: 4.74%); format: functional
NCI-H1975 [28] = assay: Induction of apoptosis in human NCI-H1975 cells assessed as increase in p53 level at 2 to 8 uM by western blot analysis; format: functional, cell-based; conditions: dose 2-8 µM
NCI-H1975 [29] = assay: Induction of apoptosis in human NCI-H1975 cells assessed as late apoptotic cells at 8 uM incubated for 48 hrs Annexin V-FITC/PI staining based flow cytometric analysis (reference value: 2.53%); format: functional
NCI-H1975 [30] = assay: Cell cycle arrest in human NCI-H1975 cells assessed as accumulation at G1 phase at 4 uM incubated for 24 hrs by propidium iodide staining based flow cytometric analysis (reference value: 50.56 %); format: functional
NCI-H1975 [31] = assay: Induction of apoptosis in human NCI-H1975 cells assessed as viable cells at 2 uM incubated for 48 hrs Annexin V-FITC/PI staining based flow cytometric analysis (reference value: 90.9%); format: functional; conditions: read-out: Activity

Sequence of Epidermal growth factor receptor (Homo sapiens) (P00533 whole entry): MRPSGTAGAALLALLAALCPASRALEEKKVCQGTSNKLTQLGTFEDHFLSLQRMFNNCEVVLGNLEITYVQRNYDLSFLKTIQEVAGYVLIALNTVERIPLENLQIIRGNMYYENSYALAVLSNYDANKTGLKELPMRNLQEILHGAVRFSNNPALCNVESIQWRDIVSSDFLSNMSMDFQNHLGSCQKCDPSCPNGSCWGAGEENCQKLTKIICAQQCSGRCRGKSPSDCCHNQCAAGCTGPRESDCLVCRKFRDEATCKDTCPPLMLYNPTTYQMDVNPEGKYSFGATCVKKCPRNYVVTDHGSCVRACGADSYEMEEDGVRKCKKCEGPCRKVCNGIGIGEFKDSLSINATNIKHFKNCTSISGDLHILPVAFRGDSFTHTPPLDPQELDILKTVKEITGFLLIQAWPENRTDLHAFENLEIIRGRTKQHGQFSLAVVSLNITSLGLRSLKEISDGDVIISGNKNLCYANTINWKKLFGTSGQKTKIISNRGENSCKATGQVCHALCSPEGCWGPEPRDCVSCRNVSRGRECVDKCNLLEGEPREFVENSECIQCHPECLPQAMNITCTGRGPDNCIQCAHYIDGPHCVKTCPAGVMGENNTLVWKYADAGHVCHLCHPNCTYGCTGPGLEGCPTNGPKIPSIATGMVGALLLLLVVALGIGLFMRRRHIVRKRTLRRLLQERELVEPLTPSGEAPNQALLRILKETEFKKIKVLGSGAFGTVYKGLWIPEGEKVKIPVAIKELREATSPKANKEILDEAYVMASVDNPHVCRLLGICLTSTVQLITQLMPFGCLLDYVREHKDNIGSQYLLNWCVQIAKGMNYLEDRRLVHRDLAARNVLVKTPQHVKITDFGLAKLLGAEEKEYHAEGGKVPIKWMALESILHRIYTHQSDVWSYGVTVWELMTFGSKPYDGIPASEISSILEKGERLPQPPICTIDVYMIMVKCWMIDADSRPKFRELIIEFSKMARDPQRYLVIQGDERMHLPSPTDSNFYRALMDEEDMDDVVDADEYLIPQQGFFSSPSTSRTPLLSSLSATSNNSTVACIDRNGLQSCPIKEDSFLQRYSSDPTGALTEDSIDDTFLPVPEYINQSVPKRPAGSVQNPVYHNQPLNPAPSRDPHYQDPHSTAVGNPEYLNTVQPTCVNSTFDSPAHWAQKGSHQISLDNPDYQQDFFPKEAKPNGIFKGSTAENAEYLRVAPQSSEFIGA

**Q.** Which inhibition [1] does the source give for `C=CC(=O)Nc1cccc(NC(=O)CSc2nc(Nc3cccc(F)c3)c3ccccc3n2)c1` here?
**A.** Its inhibition is “Dose-Dependent Effect”.

**Q.** What about the Activity (NCI-H1975 [2]) of the same molecule?
**A.** The Activity was 28.59%.

**Q.** And the inhibition [3]?
**A.** The inhibition was “Dose-Dependent Effect”.

**Q.** And the Activity (NCI-H1975 [4])?
**A.** Its Activity is 4.75%.

**Q.** And the IC50 (NCI-H1975 [5])?
**A.** Its IC50 is 2.03 µM.

**Q.** What about the Activity (NCI-H1975 [6]) of the same molecule?
**A.** The Activity was 32.22%.

**Q.** What about the Activity (NCI-H1975 [7]) of the same molecule?
**A.** Its Activity is 18.2%.

**Q.** What about the Activity (NCI-H1975 [8]) of the same molecule?
**A.** The Activity was 16.09%.

**Q.** And the Activity (NCI-H1975 [9])?
**A.** Its Activity is “Active”.

**Q.** And the IC50 (MGC-803)?
**A.** Its IC50 is 6.25 µM.

**Q.** What about the Activity (NCI-H1975 [10]) of the same molecule?
**A.** Its Activity is 5.32%.

**Q.** What about the Activity (NCI-H1975 [11]) of the same molecule?
**A.** Its Activity is “Active”.

**Q.** What about the Activity (NCI-H1975 [12]) of the same molecule?
**A.** Its Activity is 3.4%.

**Q.** And the inhibition (NCI-H1975 [13])?
**A.** The inhibition was “Dose-Dependent Effect”.

**Q.** What about the Activity (NCI-H1975 [14]) of the same molecule?
**A.** The Activity was 9.73%.

**Q.** And the Activity (NCI-H1975 [15])?
**A.** Its Activity is 63.16%.

**Q.** What about the Activity (NCI-H1975 [16]) of the same molecule?
**A.** The Activity was 33.44%.

**Q.** And the Activity (NCI-H1975 [17])?
**A.** Its Activity is “Active”.

**Q.** What about the Activity (NCI-H1975 [18]) of the same molecule?
**A.** Its Activity is “Active”.

**Q.** And the viability at 8 µM (NCI-H1975 [19])?
**A.** The viability at 8 µM was 53.4%.

**Q.** What about the inhibition (NCI-H1975 [20]) of the same molecule?
**A.** The inhibition was “Dose-Dependent Effect”.

**Q.** And the Activity (NCI-H1975 [21])?
**A.** The Activity was 14.3%.

**Q.** And the IC50 (MDA-MB-231)?
**A.** The IC50 was 8.16 µM.

**Q.** And the IC50 (PC-3)?
**A.** Its IC50 is 5.37 µM.

**Q.** What about the Activity (NCI-H1975 [22]) of the same molecule?
**A.** Its Activity is 14.2%.

**Q.** And the Activity (NCI-H1975 [23])?
**A.** Its Activity is 8.83%.

**Q.** What about the Activity (NCI-H1975 [24]) of the same molecule?
**A.** The Activity was 7.91%.

**Q.** And the Activity (NCI-H1975 [25])?
**A.** Its Activity is 55.32%.

**Q.** And the viability at 4 µM (NCI-H1975 [26])?
**A.** Its viability at 4 µM is 63.7%.

**Q.** What about the Activity (NCI-H1975 [27]) of the same molecule?
**A.** The Activity was 12.4%.

**Q.** And the Activity (NCI-H1975 [28])?
**A.** The Activity was “Active”.

**Q.** What about the Activity (NCI-H1975 [29]) of the same molecule?
**A.** Its Activity is 32.3%.

**Q.** And the Activity (NCI-H1975 [30])?
**A.** The Activity was 62.46%.

**Q.** And the viability at 2 µM (NCI-H1975 [31])?
**A.** Its viability at 2 µM is 78.5%.
